Tests used:
[1] = molecular target: Serotonin 4 (5-HT4) receptor (Sus scrofa) (UniProt Q6Q253); assay: Evaluated for the 5-hydroxytryptamine 4 receptor antagonistic activity in piglet atrium model; assay type: functional, tissue-based; conditions: Cardiac atrium
[2] = molecular target: Serotonin 3 (5-HT3) receptor (Homo sapiens) (UniProt P46098+A5X5Y0+O95264+Q70Z44+Q8WXA8)
Description: Evaluated for the 5-hydroxytryptamine 3 receptor antagonistic activity in Bezold-Jarisch model expressed as inhibition of the reflex bradycardia induced by an intravenous injection

Serotonin 4 (5-HT4) receptor (Sus scrofa), sequence (Q6Q253 as listed by the source): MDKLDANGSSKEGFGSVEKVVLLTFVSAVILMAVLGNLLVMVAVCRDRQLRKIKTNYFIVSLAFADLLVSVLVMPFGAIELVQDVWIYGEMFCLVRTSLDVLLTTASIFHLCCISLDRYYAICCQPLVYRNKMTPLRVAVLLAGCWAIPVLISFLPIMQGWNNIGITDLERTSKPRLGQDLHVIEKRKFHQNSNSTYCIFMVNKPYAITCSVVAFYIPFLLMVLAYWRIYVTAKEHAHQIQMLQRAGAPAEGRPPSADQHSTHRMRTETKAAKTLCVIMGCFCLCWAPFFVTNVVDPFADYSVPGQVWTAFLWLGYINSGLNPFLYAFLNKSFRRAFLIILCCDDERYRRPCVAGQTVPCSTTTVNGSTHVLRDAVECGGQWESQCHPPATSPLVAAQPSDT

SMILES | -Log KB [1] | ID50 [2] [µg/kg]
CN1[C@@H]2CC[C@H]1C[C@@H](OC(=O)c1c[nH]c3ccccc13)C2 | 6.9 | 1.4
CN1[C@@H]2CC[C@H]1C[C@H](NC(=O)c1nn(C)c3ccccc13)C2 | 6.5 | 
CN1C2CCCC1CC(NC(=O)c1[nH]nc3ccccc13)C2 (stereo not given) | 5 | 1
CN1C2CCC1CC(OC(=O)c1[nH]nc3ccccc13)C2 (stereo not given) | 7.2 | 5
CN1C2CCC1CC(NC(=O)c1n[nH]c3ccccc13)C2 (stereo not given) | 6.8 | 1.5
CN1C2CCC1CC(NC(=O)N1CC(C)(C)c3ccccc31)C2 (stereo not given) | 4.9 | 

From ChEMBL document CHEMBL1126417, “Indazole as an indole bioisostere: 5-HT4 receptor antagonism” (Bioorg Med Chem Lett, 1992)
